“And” between values parts separate entries of the source, which are not always exact repeats. Identical values can stand only once. Like-named read-outs stand apart in the source and are kept apart here.

One assay deals with CE protein (YF or DEN). The conditions noted are these: read-out: Ki for the displacement of GTP–BODIPY; competition assay; cited from earlier work.
In assay [1] the target is T1, YF CE (Yellow fever virus, UniProt P03314). It counts as binding, yellow fever virus (strain 17D).
T1 sequence (P03314 2507-2771 limits assumed): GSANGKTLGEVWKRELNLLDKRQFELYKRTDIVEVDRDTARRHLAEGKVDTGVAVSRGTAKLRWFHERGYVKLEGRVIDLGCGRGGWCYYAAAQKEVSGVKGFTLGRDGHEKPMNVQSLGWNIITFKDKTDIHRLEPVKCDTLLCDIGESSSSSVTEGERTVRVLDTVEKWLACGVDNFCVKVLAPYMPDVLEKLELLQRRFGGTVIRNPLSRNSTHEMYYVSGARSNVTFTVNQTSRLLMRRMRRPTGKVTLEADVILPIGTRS
A further assay addresses T2, DEN CE (Dengue virus type 2, UniProt P29990).
T2 sequence (P29990 2493-2755 limits assumed): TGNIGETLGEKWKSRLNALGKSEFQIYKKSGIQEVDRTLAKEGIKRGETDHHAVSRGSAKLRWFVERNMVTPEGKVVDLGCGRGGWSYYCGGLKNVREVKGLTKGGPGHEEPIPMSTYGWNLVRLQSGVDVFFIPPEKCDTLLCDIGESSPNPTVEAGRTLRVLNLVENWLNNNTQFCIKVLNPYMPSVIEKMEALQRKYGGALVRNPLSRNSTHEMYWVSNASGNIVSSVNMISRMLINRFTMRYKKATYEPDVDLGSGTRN
It counts as biochemical.

For assay [2], the target named is T1, YF CE.
Another assay concerns the target T3, DEN2 CE (Dengue virus type 2, UniProt P29990).
T3 sequence (P29990 2493-2755 limits assumed): T2 sequence (P29990 2493-2755 limits assumed)
It counts as binding, dengue virus 2 (strain 16681).

Take `Nc1nc2c(ncn2[C@@H]2O[C@H](COP(=O)(O)OP(=O)(O)OP(=O)(O)O)[C@@H](O)[C@H]2O)c(=O)[nH]1` [GTP, guanosine triphosphate, reference compound]: the Ki at CE protein (YF or DEN) was 0.04 µM. For the same compound, the “average mP value of inhibition” value at YF CE [1] is 42.4 ± 5.19 mP and 81.8 ± 6.09 mP.

Regarding `Cc1ccc(C)n1C(Cc1c[nH]c2ccccc12)C(=O)O` (stereo not drawn) [BAS 01211690], on DEN CE, the “inhibition of guanylation (in words)” value was “weaker inhibition of guanylation”. On DEN CE (read-out: Guanylation IC50 DEN), the IC50 – broadly, the midpoint of a concentration-inhibition curve – worked out at 78.9 ± 37.8 µM. Also, the Ki at YF CE [2] (read-out: apparent Ki, FP, YF) was determined as 5.8 ± 0.5 µM; at YF CE [2] (read-out: apparent Ki, TF, YF) it was 5.8 ± 1.7 µM; on DEN2 CE (read-out: apparent Ki, FP, DEN) it was 10.1 ± 1.3 µM; at DEN2 CE (read-out: apparent Ki, TF, DEN), 9.1 ± 2.5 µM. The “Percent Inhibition HTS” value at YF CE [1] amounted to 23%.

`Nc1ncnc2c1ncn2[C@@H]1O[C@H](COP(=O)(O)OP(=O)(O)OP(=O)(O)O)[C@@H](O)[C@H]1O` [adenosine triphosphate (ATP), adenosine triphosphate]: the Ki on CE protein (YF or DEN) is 350 µM.

`COC(=O)[n+]1ccc(N2CCOCC2)cc1` [BAS01531218]: the Ki on YF CE [2] (read-out: apparent Ki, FP, YF) came out at 4.9 ± 1 µM; at YF CE [2] (read-out: apparent Ki, TF, YF), 6.2 ± 1.4 µM; at DEN2 CE (read-out: apparent Ki, FP, DEN), 4.8 ± 1.5 µM; on DEN2 CE (read-out: apparent Ki, TF, DEN), 2.6 ± 0.5 µM. Also, the “Percent Inhibition HTS” value on YF CE [1] was 12%.

The values above are taken from paper PMC3532936 (Journal of biomolecular screening, 2011).
